According to ChEMBL document CHEMBL4190322, “Structure-based development of novel triazoles and related thiazolotriazoles as anticancer agents and Cdc25A/B phosphatase inhibitors. Synthesis, in vitro biological evaluation, molecular docking and in silico ADME-T studies” (Eur J Med Chem, 2017):
Calls of active or inactive are those of the source. The calls are words filed in the database; no cut-off is given here.

Tests used:
Format in all cases: functional
HOP-62 = assay: Growth inhibition of human HOP62 cells at 10 uM after 48 hrs by SRB assay relative to control
UO-31 = assay: Growth inhibition of human UO31 cells at 10 uM after 48 hrs by SRB assay relative to control; conditions: UO-31, 48 h, read-out: GI
PC-3 = assay: Growth inhibition of human PC3 cells at 10 uM after 48 hrs by SRB assay relative to control; conditions: PC-3, 48 h, read-out: GI
SR = assay: Growth inhibition of human SR cells at 10 uM after 48 hrs by SRB assay relative to control; conditions: read-out: GI
RPMI-8226 = assay: Growth inhibition of human RPMI8226 cells at 10 uM after 48 hrs by SRB assay relative to control; conditions: RPMI-8226, 48 h, read-out: GI
SNB-19 = assay: Growth inhibition of human SNB19 cells at 10 uM after 48 hrs by SRB assay relative to control
786-0 = assay: Growth inhibition of human 786-0 cells at 10 uM after 48 hrs by SRB assay relative to control
HOP-92 = assay: Growth inhibition of human HOP92 cells at 10 uM after 48 hrs by SRB assay relative to control; conditions: HOP-92, 48 h, read-out: GI
Malme-3M = assay: Growth inhibition of human MALME-3M cells at 10 uM after 48 hrs by SRB assay relative to control
UACC-257 = assay: Growth inhibition of human UACC257 cells at 10 uM after 48 hrs by SRB assay relative to control; conditions: UACC-257, 48 h, read-out: GI
K562 = assay: Growth inhibition of human K562 cells at 10 uM after 48 hrs by SRB assay relative to control; conditions: K562, 48 h, read-out: GI
A498 = assay: Growth inhibition of human A498 cells at 10 uM after 48 hrs by SRB assay relative to control; conditions: A498, 48 h, read-out: GI
U-251 = assay: Growth inhibition of human U251 cells at 10 uM after 48 hrs by SRB assay relative to control; conditions: U-251, 48 h, read-out: GI
Hs-578T = assay: Growth inhibition of human Hs 578T cells at 10 uM after 48 hrs by SRB assay relative to control
SF-268 = assay: Growth inhibition of human SF268 cells at 10 uM after 48 hrs by SRB assay relative to control; conditions: SF-268, 48 h, read-out: GI
CAKI-1 = assay: Growth inhibition of human Caki1 cells at 10 uM after 48 hrs by SRB assay relative to control; conditions: CAKI-1, 48 h, read-out: GI
A549 = assay: Growth inhibition of human A549 cells at 10 uM after 48 hrs by SRB assay relative to control; conditions: A549, 48 h, read-out: GI
OVCAR-4 = assay: Growth inhibition of human OVCAR4 cells at 10 uM after 48 hrs by SRB assay relative to control
NCI-H322M = assay: Growth inhibition of human NCI-H322M cells at 10 uM after 48 hrs by SRB assay relative to control
MOLT-4 = assay: Growth inhibition of human MOLT4 cells at 10 uM after 48 hrs by SRB assay relative to control
MDA-MB-468 = assay: Growth inhibition of human MDA-MB-468 cells at 10 uM after 48 hrs by SRB assay relative to control
CCRF-CEM = assay: Growth inhibition of human CCRF-CEM cells at 10 uM after 48 hrs by SRB assay relative to control; conditions: read-out: GI
SK-MEL-2 = assay: Growth inhibition of human SK-MEL-2 cells at 10 uM after 48 hrs by SRB assay relative to control; conditions: SK-MEL-2, 48 h, read-out: GI
SK-MEL-5 = assay: Growth inhibition of human SK-MEL-5 cells at 10 uM after 48 hrs by SRB assay relative to control
MCF7 = assay: Growth inhibition of human MCF7 cells at 10 uM after 48 hrs by SRB assay relative to control; conditions: MCF7, 48 h, read-out: GI
SNB-75 = assay: Growth inhibition of human SNB75 cells at 10 uM after 48 hrs by SRB assay relative to control; conditions: SNB-75, 48 h, read-out: GI
OVCAR-3 = assay: Growth inhibition of human OVCAR3 cells at 10 uM after 48 hrs by SRB assay relative to control
HT-29 = assay: Growth inhibition of human HT-29 cells at 10 uM after 48 hrs by SRB assay relative to control
LOX IMVI = assay: Growth inhibition of human LOXIMVI cells at 10 uM after 48 hrs by SRB assay relative to control; conditions: read-out: GI
HL-60 = assay: Growth inhibition of human HL60 cells at 10 uM after 48 hrs by SRB assay relative to control
NCI-H226 = assay: Growth inhibition of human NCI-H226 cells at 10 uM after 48 hrs by SRB assay relative to control; conditions: NCI-H226, 48 h, read-out: GI
NCI-H23 = assay: Growth inhibition of human NCI-H23 cells at 10 uM after 48 hrs by SRB assay relative to control; conditions: NCI-H23, 48 h, read-out: GI
SK-OV-3 = assay: Growth inhibition of human SKOV3 cells at 10 uM after 48 hrs by SRB assay relative to control
KM12 = assay: Growth inhibition of human KM12 cells at 10 uM after 48 hrs by SRB assay relative to control
NCI/ADR-RES = assay: Growth inhibition of human NCI/ADR-RES cells at 10 uM after 48 hrs by SRB assay relative to control
UACC-62 = assay: Growth inhibition of human UACC62 cells at 10 uM after 48 hrs by SRB assay relative to control
RXF 393 = assay: Growth inhibition of human RXF393 cells at 10 uM after 48 hrs by SRB assay relative to control
NCI-H522 = assay: Growth inhibition of human NCI-H522 cells at 10 uM after 48 hrs by SRB assay relative to control; conditions: NCI-H522, 48 h, read-out: GI
OVCAR-8 = assay: Growth inhibition of human OVCAR8 cells at 10 uM after 48 hrs by SRB assay relative to control
HCT-116 = assay: Growth inhibition of human HCT116 cells at 10 uM after 48 hrs by SRB assay relative to control

`COc1ccc(Cc2nnc3sc(SC)nn23)cc1` was tested, and the “growth inhibition (GI)” value (HOP-62) was “inactive”, the inhibition of growth at 10 µM (UO-31) was 12.7% and the inhibition of growth at 10 µM (PC-3) was 2.19%. The inhibition of growth at 10 µM (SR) was 7.53%, the inhibition of growth at 10 µM (RPMI-8226) was 1.21% and the “growth inhibition (GI)” value (SNB-19) was “inactive”. The “growth inhibition (GI)” value (786-0) was “inactive”, the inhibition of growth at 10 µM (HOP-92) was 13.4% and the “growth inhibition (GI)” value (Malme-3M) was “inactive”. It also gave an inhibition of growth at 10 µM (UACC-257) of 9.07%, an inhibition of growth at 10 µM (K562) of 3.47% and an inhibition of growth at 10 µM (A498) of 3.37%. For the same compound, the inhibition of growth at 10 µM (U-251) was 3.17%, the “growth inhibition (GI)” value (Hs-578T) was “inactive” and the inhibition of growth at 10 µM (SF-268) was 2.15%. The inhibition of growth at 10 µM (CAKI-1) was 4.37%, the inhibition of growth at 10 µM (A549) was 4.46% and the “growth inhibition (GI)” value (OVCAR-4) was “inactive”. The “growth inhibition (GI)” value (NCI-H322M) was “inactive”, the “growth inhibition (GI)” value (MOLT-4) was “inactive” and the “growth inhibition (GI)” value (MDA-MB-468) was “inactive”. For the same compound, the inhibition of growth at 10 µM (CCRF-CEM) was 5.04%, the inhibition of growth at 10 µM (SK-MEL-2) was 14.7% and the “growth inhibition (GI)” value (SK-MEL-5) was “inactive”. The inhibition of growth at 10 µM (MCF7) was 8.21%, the inhibition of growth at 10 µM (SNB-75) was 8.34% and the “growth inhibition (GI)” value (OVCAR-3) was “inactive”. For the same compound, the “growth inhibition (GI)” value (HT-29) was “inactive”, the inhibition of growth at 10 µM (LOX IMVI) was 2.73% and the “growth inhibition (GI)” value (HL-60) was “inactive”. The inhibition of growth at 10 µM (NCI-H226) was 4.76%, the inhibition of growth at 10 µM (NCI-H23) was 5.4% and the “growth inhibition (GI)” value (SK-OV-3) was “inactive”. The “growth inhibition (GI)” value (KM12) was “inactive”, the “growth inhibition (GI)” value (NCI/ADR-RES) was “inactive” and the “growth inhibition (GI)” value (UACC-62) was “inactive”. For the same compound, the “growth inhibition (GI)” value (RXF 393) was “inactive”, the inhibition of growth at 10 µM (NCI-H522) was 12.2% and the “growth inhibition (GI)” value (OVCAR-8) was “inactive”. For the same compound, the “growth inhibition (GI)” value (HCT-116) was “inactive”.
In the case of `CCSc1nnc(Cc2ccc(OC)cc2)n1-c1ccccc1`, the inhibition of growth at 10 µM (HOP-62; HOP-62, 48 h, read-out: GI) is reported as 2.28%, the inhibition of growth at 10 µM (UO-31) is reported as 20% and the inhibition of growth at 10 µM (PC-3) is reported as 14.3%. For the same compound, the inhibition of growth at 10 µM (SR) was 3.31%, the inhibition of growth at 10 µM (RPMI-8226) was 13.5% and the inhibition of growth at 10 µM (SNB-19; SNB-19, 48 h, read-out: GI) was 14.5%. For the same compound, the “growth inhibition (GI)” value (786-0) was “inactive”, the inhibition of growth at 10 µM (HOP-92) was 8.26% and the inhibition of growth at 10 µM (Malme-3M; read-out: GI) was 9.23%. It also gave an inhibition of growth at 10 µM (UACC-257) of 3.16%, an inhibition of growth at 10 µM (K562) of 14.1% and an inhibition of growth at 10 µM (A498) of 22.1%. For the same compound, the inhibition of growth at 10 µM (U-251) was 13%, the “growth inhibition (GI)” value (Hs-578T) was “inactive” and the inhibition of growth at 10 µM (SF-268) was 6.15%. It also gave an inhibition of growth at 10 µM (CAKI-1) of 11.9%, an inhibition of growth at 10 µM (A549) of 5.86% and an inhibition of growth at 10 µM (OVCAR-4; OVCAR-4, 48 h, read-out: GI) of 7.48%. The “growth inhibition (GI)” value (NCI-H322M) was “inactive”, the inhibition of growth at 10 µM (MOLT-4; MOLT-4, 48 h, read-out: GI) was 10% and the inhibition of growth at 10 µM (MDA-MB-468; MDA-MB-468, 48 h, read-out: GI) was 10.7%. It also gave an inhibition of growth at 10 µM (CCRF-CEM) of 7.61%, an inhibition of growth at 10 µM (SK-MEL-2) of 5% and an inhibition of growth at 10 µM (SK-MEL-5; SK-MEL-5, 48 h, read-out: GI) of 4.7%. The inhibition of growth at 10 µM (MCF7) was 5.53%, the inhibition of growth at 10 µM (SNB-75) was 10% and the “growth inhibition (GI)” value (OVCAR-3) was “inactive”. The inhibition of growth at 10 µM (HT-29; HT-29, 48 h, read-out: GI) was 8.24%, the inhibition of growth at 10 µM (LOX IMVI) was 4.89% and the “growth inhibition (GI)” value (HL-60) was “inactive”. The inhibition of growth at 10 µM (NCI-H226) was 5.31%, the inhibition of growth at 10 µM (NCI-H23) was 6.16% and the “growth inhibition (GI)” value (SK-OV-3) was “inactive”. For the same compound, the inhibition of growth at 10 µM (KM12; KM12, 48 h, read-out: GI) was 3.07%, the inhibition of growth at 10 µM (NCI/ADR-RES; read-out: GI) was 6.88% and the “growth inhibition (GI)” value (UACC-62) was “inactive”. The “growth inhibition (GI)” value (RXF 393) was “inactive”, the inhibition of growth at 10 µM (NCI-H522) was 22.4% and the “growth inhibition (GI)” value (OVCAR-8) was “inactive”. The “growth inhibition (GI)” value (HCT-116) was “inactive”.
